Values quoted from earlier work as cited in patent US6927291B2, “Method for the synthesis of 2′,3′-dideoxy-2′,3′-didehydronucleosides” (Pharmasset, Ltd., priority 2001, dated 2005).

How the values were obtained:
[1] = tested on: HIV; settings: result in words
[2] = tested on: AZT-resistant HIV isolates; settings: in vitro; isolates from patients treated with AZT for longer than 36 weeks
[3] = tested on: HIV; settings: versus all approved anti-HIV agents

Row | SMILES | activity against HIV [1] | inhibition of replication of AZT-resistant HIV isolates [2] | cross-resistance [3]
1 | Nc1ccn(C2CSC(CO)O2)c(=O)n1 (racemic) [BCH-189, 2-hydroxymethyl-5-(cytosin-1-yl)-1,3-oxathiolane] | approximately the same activity against HIV as AZT | inhibit the replication of AZT-resistant HIV isolates in vitro | 
2 | Nc1nc(=O)n(C2C=CC(CO)O2)cc1F [β-D-D4FC, β-D-2′,3′-didehydro-2′,3′-dideoxy-5-fluorocytidine] | potent anti-HIV activity in vitro |  | no cross-resistance with all approved anti-HIV agents
3 | Nc1nc(=O)n([C@@H]2CS[C@H](CO)O2)cc1F (relative stereo) [FTC, cis-2-hydroxymethyl-5-(5-fluorocytosin-1-yl)-1,3-oxathiolane] | potent HIV activity |  | 
4 | Nc1ccn([C@@H]2CS[C@H](CO)O2)c(=O)n1 [Formula 3TC] | highly potent against HIV |  | 
